Test results from patent publication US12539284B2, “Aminoxy acid-based anti-cancer stem cell compounds and methods thereof” (Westlake University, priority 2019, dated 2026).
“Also recorded” adds a separate entry of the source. Where two headings read alike, the source gives them in different places.

Columns and labels:
[1] = system: Huh 7 cancer stem cells (CD133+); experiment: Cell viability (CellTiter-Glo) of sorted Huh 7 CD133+ cells; assay type: cell-based; settings: 48 h, different doses
Experimental: (§1) Huh-7 cells were stained with PE-conjugated CD133 antibody (HCC cancer stem cell marker) according to the manufacturer's instructions. Then CD133^+ cells (Huh 7 cancer stem cells) and CD133− cells were sorted by flow cytometry and seeded into 96-well plate with fresh DMEM medium. After 24 h, medium was changed to fresh medium with compound sff-2-112 (“Example 1”) or sff-2-124 (“Example 3”) at different doses. After 48 h, cell viability was analyzed by CellTiter-Glo luminescent agent.

NIH3T3 = experiment: Toxicity against normal cell line NIH3T3; assay type: cell-based
Source text: Fourteen compounds including aminoxy acid monomers and dipeptides have been identified to show toxicity against HEY A8 CSCs. The half maximal inhibitory concentration (IC50) values of compounds sff-2-112, sff-2-124, sff-2-132 and sff-2-100 towards adherent cancer HEY A8, SKOV3 cells and CSCs were further determined. […] Especially compound sff-2-132, its selectivity to CSCs is up to 60-fold higher than that to cancer cells. Their toxicity against other normal cell lines NIH3T3, HEK293 and MDCK were also tested and the IC50 values were summarized in Table 1.

Huh 7 CD133- cells = experiment: Cell viability (CellTiter-Glo) of sorted Huh 7 CD133- cells; assay type: cell-based; settings: 48 h, different doses
Experimental: as §1

HEY A8 CSCs (HEY A8 SP) = experiment: Toxicity / cell viability (CellTiter-Glo) on HEY A8 spheres (CSCs); assay type: cell-based, human; settings: for rank of toxicity among the 14 molecules on HEY A8 CSCs: 5 μM; for rank of toxicity among the 14 molecules on HEY A8 CSCs / cell viability of HEY A8 CSCs (toxicity): 48 h; for IC50: HEY A8 spheres, 48 h incubation, read-out: IC50 Cancer Stem Cell HeyA8 SP; for cell viability of HEY A8 CSCs (toxicity): compound 5 μM; for selectivity towards ovarian CSCs over ovarian cancer cells and normal cells: from IC50 values, FIG. 4 and Table 1
Experimental: Aminoxy acids were synthesized by the standard peptide coupling procedures. The CSCs are obtained by spheroids culturing under suspension condition. It is confirmed that these spheres indeed contain significant higher population of cells with CD133 antigenic phenotype, which has been reported can represent ovarian CSCs (FIG. 2). After treatment with compounds for 48 h, the cell viability of CSCs was measured by using CELLTITER-GLO® luminescent reagent. Compound sff-3-85 (“Example 2”) were used at the dose of 10 μM, all the other compounds were used at the concentration of 5 μM. All experiments were performed three times and data is presented as mean±SD.
Cell Cultures Human ovarian carcinoma cell lines HEY A8 and SKOV3 were gifts from Professor Alice Wong's group (The University of Hong Kong). Cells were grown in Dulbecco's Modified Eagle (DMEM) medium supplemented with 10% FBS and 1% penicillin/streptomycin at 37° C. in a humidified atmosphere containing […] CO2. Isolation and culture of spheres were performed in serum-free stem-cell-selective condition as described in literature Ip etl. Oncogene 2014, 5, 9133-9149. Briefly, 1-2 weeks after plating, non-adherent spherical clusters of cells could be observed and were separated from single cells by low speed centrifugation. After 8th to 10th passages, the non-adherent spherical clusters of cells appeared as distinct spheres. Using this selection condition, HEY A8 spheres (HEY A8 SP) or SKOV3 spheres (SKOV3 SP) could be enzymatically dissociated and reformed into spheres within 3 days under stem-cell-selective condition. To allow differentiation, dissociated sphere cells were plated on tissue culture plates in medium (MCDB 105:M199=1:1) supplemented with 10% FBS and 1% PS.
(§2) HEY A8 SP cells (5×10^4) were plated in triplicate in 10 mL serum-free MCDB105 medium in 100-mm Petri dish for 7 days to form spheres. Compound at the final concentration of 5 μM was added. The cells were further incubated at 37° C. for 48 h. After that cells were collected by centrifugation and the medium was removed. Then 100 μL CellTiter-Glo® Luminescent Cell Viability reagent was added into each tube, which was incubated for 10 min with shaking. After that, the reagent was transferred into 96-well plates and cell viability was measured using a microplate reader (SpectraMax 340PC 384, Molecular Devices).
as §2, with “A8 SP cells or SKOV3” for “A8”, “Then drugs” for “Compound”, “different” for “the final”, “were” for “of 5 μM was”, “μL of” for “μL”

HEY A8 cancer cells = experiment: Apoptosis, Annexin V / PI flow cytometry, cancer cells; assay type: cell-based, human; settings: 30 μM, 2 days
Experimental: A suspension of HEY A8 cells at the concentration of 5×10^4 cells/mL in DMEM medium were seeded into 60-mm cell culture dishes. Cells were incubated at 37° C. in a humidified atmosphere containing 5% CO2 for 24 h followed by the addition of 4 mL fresh medium or medium containing compound sff-2-112 (“Example 1”) or sff-2-132 (“Example 4”) at different concentration. […] After 2 days, the medium was aspirated and cells were washed with cold PBS twice, and then stained with PI and Annexin V according to the manufacture's instruction (Dead Cell Apoptosis Kit with Annexin V Alexa Fluor™ 488 & Propidium Iodide, Thermo Fisher). Cells were analyzed by flow cytometry (BD FACS CantoII Analyzer).

HEY A8 CSCs = experiment: In vivo tumor seeding ability of pretreated HEY A8 CSCs; settings: CSCs pretreated 2 days in vitro, 10^6 cells injected subcutaneously in mice, 25 days
Experimental: In vivo tumor seeding ability of cells after treatment with compound sff-2-112 (“Example 1”) or sff-2-132 (“Example 4”) was evaluated. Taxol was used as a negative control. For this experiment, HEY A8 CSCs were pretreated with sff-2-112 (“Example 1”), sff-2-132 (“Example 4”) or Taxol for 2 days in suspension medium, respectively. Then cells were allowed to proliferate in full medium in the absence of drugs for 10 days. After that, 10^6 cells were injected into mice subcutaneously. Tumor size was measured for 25 days after injection.

Compound	death of Huh 7 CD133+ cells [1]	IC50 (NIH3T3)	death of Huh 7 CD133- cells (Huh 7 CD133- cells)	rank of toxicity among the 14 molecules on HEY A8 CSCs (HEY A8 CSCs (HEY A8 SP))	IC50 (HEY A8 CSCs (HEY A8 SP))	cell viability of HEY A8 CSCs (toxicity) (HEY A8 CSCs (HEY A8 SP))	selectivity towards ovarian CSCs over ovarian cancer cells and normal cells (HEY A8 CSCs (HEY A8 SP))	Annexin V positive cells, cancer cells (HEY A8 cancer cells)	tumor-seeding ability / tumor size of pretreated cells (HEY A8 CSCs)	IC50 (NIH3T3; Mus musculus, NIH3T3)	IC50 (HEY A8 CSCs (HEY A8 SP); Homo sapiens)	selectivity to CSCs over cancer cells (HEY A8 CSCs (HEY A8 SP); ovarian CSCs vs adherent cancer cells (and normal cells))
O=C(NO[C@H](COCc1ccccc1)C(=O)Nc1ccccc1)c1cc(C(F)(F)F)cc(C(F)(F)F)c1 [sff-2-112]	induce the death	30.5 ± 1.1 µM	induce the death	highest toxicity	1500 ± 1300 nM	significantly decreased the cell viability	selectively induce the death of ovarian CSCs	8.21%	significant decrease in tumor-seeding ability; also recorded: significantly decreased tumor size			
CC(C)(C)OC(=O)[C@@H](COCc1ccccc1)ONC(=O)c1cc(C(F)(F)F)cc(C(F)(F)F)c1 [sff-2-132]				highest toxicity		significantly decreased the cell viability	best selectivity; also recorded: selectively induce the death of ovarian CSCs	1.30%	significant decrease in tumor-seeding ability; also recorded: significantly decreased tumor size	58 ± 2.2 µM	1000 ± 900 nM	up to 60 fold
